# Measured values as given in patent publication US20130131161A1, “METHODS AND COMPOSITIONS FOR CARDIOVASCULAR DISEASES AND CONDITIONS” (priority 2009, published 2013).
# System: Human umbilical vein endothelial cells (HUVECs)
# Test: Comparison of LA-419 and ISDN: NO and ONOO− release from HUVECs measured with tandem electrochemical nanosensors (Example 1)
# Type: cell-based
# Details: for NO release (mean ± S.D.) / ONOO− release (mean ± S.D.): 500 nM, 12 hours, then CaI (1.0 μM)
# Procedure: Human umbilical vein endothelial cells (HUVECs) were isolated into primary cultures and purchased as proliferating cells from Clonetics (San Diego, Calif.). All cell culture donors were healthy, with no pregnancy or prenatal complications. The cultured cells were incubated in 95% air/5% CO2 at 37° C. and passage by an enzymatic (trypsin) procedure. The confluent cells (4 to 5×10^5 cells per 35-mm dish) were placed with minimum essential medium containing 3 mM L-arginine and 0.1 mM BH4 [(6R)-5,6,7,8-tetrahydrobiopterin]. Before the experiments, the cells (from second or third passage) were rinsed twice with Tyrode-HEPES buffer with 1.8 mM CaCl2. ISDN was obtained from Sigma-Aldrich.
# Concurrent measurements of NO and ONOO^− were carried out with tandem electrochemical nanosensors combined into one working unit with a total diameter of 200-500 nm (FIG. 1). Their design was based on previously developed and well-characterized chemically modified carbon-fiber technology (Malinski and Taha, 1992; Lvovich and Scheeline, 1997). Each of the nanosensors was made by depositing a sensing material on the tip of a carbon fiber (length 4-5 μm, diameter 0.2-0.5 μm). The fibers were sealed with nonconductive epoxy and electrically connected to copper wires with conductive silver epoxy. A conductive film of polymeric nickel (II) tetrakis(3-methoxy-4-hydroxyphenyl)porphyrin for the NO-sensor and polymeric film of Mn (III) [2.2]paracyclophanylporphyrin was used for the ONOO^−-sensor.
# A module of NO/ONOO^− nanosensors (diameter 1-2 μm) with a platinum wire (0.1 mm) counter electrode and saturated calomel reference electrode (SCE) were applied. Differential pulse voltammetry (DPV) and amperometry were performed with a computer-based Gamry VFP600 multichannel potentiostat. DPV was used to measure the basal NO and ONOO^− concentrations, and amperometry was used to measure changes in NO and ONOO^− concentrations from its basal level with time. The DPV current at the peak potential characteristic for NO oxidation (0.65 V) and ONOO^− reduction (−0.45 V) was directly proportional to the local concentrations of these compounds in the immediate vicinity of the sensor. Linear calibration curves (current vs. concentration) were constructed for each sensor from 10 nM to 3 μM before and after measurements with aliquots of NO and ONOO^− standard solutions, respectively. The detection limit of the sensors was 1.0 nM.
# The quantification of each analyte (concentration in nM) was performed using a maximum current from amperograms and standard calibration curves. A reproducibility of measurements with nanosensors is relatively high (between 5-12%). […] The sensors were slowly raised 5±2 μm from the surface of a single endothelial cell. The eNOS agonist, calcium ionophore A23187 (CaI) as well as the different drugs were then added to the surrounding media at the cell surface with a nanoinjector that was also positioned by a computer controlled-micromanipulator.
# The HUVEC preparation is stable over the course of these experiments with the cells remaining viable in culture for >24 hours. Under non-stimulating conditions, basal levels of NO release are very low (<30 nM). Measurement of NO release as a function of treatment was conducted in individual endothelial cells. Multiple measurements of NO release can be conducted on single cells following a brief refractory period. For robust statistical analysis, separate cells were used for each concentration and type of drug used in these analyses.
# [1] = HUVECs from Non-Hispanic Whites
compound,measurement,setting,value
"CC(=O)SC1COC2C(O[N+](=O)[O-])COC12 (stereo not drawn) [LA-419, S-(6-Nitro-oxi-hexahydro-furo[3,2-b]furan-3-1-il)thioacetate]",NO release (mean ± S.D.),HUVECs from African Americans,253 ± 15 nM
same,ONOO− release (mean ± S.D.),HUVECs from African Americans,532 ± 25 nM
same,NO release (mean ± S.D.),[1],409 ± 30 nM
same,ONOO− release (mean ± S.D.),[1],307 ± 11 nM
same,effect on NO release,"HUVECs from both non-Hispanic whites and African Americans, identical conditions",small increase
same,NO/ONOO− ratio versus control samples,"HUVECs, 12 h treatment",not significantly different from control samples
